Assays:
IS-CD8+ T cells = test: Homing of DiI-labeled IS-CD8+ T cells into the pancreatic islets of NOD mice; assay type: in vivo; conditions: 24 h
Description: Fluorescent Tracing and Morphometric Analysis—For trafficking studies, IS-CD8^+ T cells were incubated at 1×10^7 cells/ml for 30 min at 37° C. in the dark in complete Click's medium containing 5% fetal calf serum and 0.0075 mg/ml of the fluorescent dye 1,1′-didodecyl-3,3,3′,3′-tetramethylindocarbocyanine perchlorate (DiI; Molecular Probes, Eugene, Oreg.). After incubation, the cells were washed three times with phosphatebuffered saline to remove excess DiI. Labeled IS-CD8^+ cells (1×10^7 cells) were injected intravenously in 0.2 ml of phosphate-buffered saline into irradiated (725 rads, 24 h in advance) NOD mice. Mice were sacrificed 24 h after injection of DiI-labeled cells. The spleen and the pancreata were excised and fixed in 0.1 M periodate-lysine-paraformaldehyde phosphate buffer. The organs were next sucrose-saturated, freeze-molded in OCT compound (Sakura Finetek Inc., Torrance, Calif.), and freeze-sectioned. 7-μm-thick cryostat sections of the entire pancreas were prepared at 60-μm intervals using a Leica CM1900 cryotom. Distribution of DiI-labeled CD8^+ cells within the islets was examined using a fluorescent microscope. At least 100 individual islets per mouse (4-5 mice/experimental group) were examined. The characteristic morphology of the islets is easily identified on the cryosections. DiI-labeled cells were counted within the area relevant to each individual islet (see FIG. 3 for a representative image; the islet-relevant area is depicted by the solid white line, and the islet boundaries are shown by the white dotted line). The position of each IS-CD8^+ labeled cell was determined relative to the islet boundary. The labeled cells localized within the islet boundary were considered to be “inside,” whereas the labeled cells adjacent to the islet but outside of the islet boundary were considered to be “at the entrance.” This method has been described in substantial detail (Savinov, A. Y., et al. (2003), and Savinov, A. Y., et al. (2001), which are herein incorporated by reference in their entirety for their teaching of these methods).
Fluorescent tracing and morphometric analysis—For trafficking studies, IS-CD8^+ T cells were incubated at 1×10^7 cells/ml for 30 min at 37° C. in the dark in the complete Click's medium containing 5% FCS and 0.0075 mg/ml of fluorescent dye 1,1′-didodecyl-3,3,3′,3′-tetramethylindocarbocyanine perchlorate (DiI; Molecular Probes). After incubation, the cells were washed three times with PBS to remove excess DiI. Labeled IS-CD8^+ cells (1×10^7 cells) were intravenously injected in 0.2 ml of PBS into irradiated (725 Rad, 24 h in advance) NOD mice. Mice were sacrificed 24 h after injection of DiI-labeled cells. […] In 24 h, the spleen and the pancreata were excised and fixed in 0.1 M periodate-lysine-paraformaldehyde phosphate buffer. The organs were next sucrose-saturated, freeze-molded in OCT compound (Sakura Finetek Inc.) and freeze-sectioned. 7-μm-thick cryostat sections of the entire pancreas were prepared at the 60 μm intervals using a Leica CM1900 cryotom. Distribution of DiI-labeled CD8^+ cells within the islets was examined using a fluorescent microscope. At least 100 individual islets per mouse, 4-5 mice per each experimental group, were examined. The characteristic morphology of the islets is easily identified on the cryosections. DiI-labeled cells were counted within the area relevant to each individual islet. The position of each IS-CD8^+ labeled cell was determined relative to the islet boundary. […]

NOD mice = test: Adoptively transferred diabetes in NOD mice (IS-CD8+ cells); assay type: in vivo
Description: IS-CD8^+ cells were labeled with DiI and then injected in NOD mice. In 24 h, the labeled cells with their intra-islet location were counted in the cryostat sections of the entire pancreas. […] IS-CD8^+ cells were injected in NOD mice. […] PBS containing […] DMSO was used as a vehicle control. The onset of diabetes was monitored daily by measuring urine glucose levels with the Diastix reagent strips. Mice with urine glucose levels of ≧2000 mg/dl for 3 consecutive days were considered diabetic. * and **, p=0.02 and p=0.015 by Fisher's test, respectively.
Mice were monitored for 21 days. […] The onset of diabetes was identified by assessing urine glucose levels with Diastix® strips (Bayer). Mice with urine glucose levels of >2000 mg/dl for 3 consecutive days were considered diabetic. […] The level of glucose in the urine closely follows that in the blood (Traisman, H. S., and Greenwood, R. D. (1973)). The measurement of glucose in urine is a widely accepted method to follow the development of diabetes in NOD mice (Pomerleau, D. P., et al. (2005)).

[1] = continuous oral dosing, cited from earlier work

CC1(C)SCCN(S(=O)(=O)c2ccc(Oc3ccncc3)cc2)[C@H]1C(=O)NO [AG3340]
IS-CD8+ cells found inside the islets (IS-CD8+ T cells; Example 1: cells co-incubated 2 h with AG3340 50 μM before injection): smaller number of cells
reduction in the T cell homing (IS-CD8+ T cells; Example 2: AG3340 1 mg/kg i.v. 30 min before cells): 50%
homing of IS-CD8+ cells inside the islets (IS-CD8+ T cells; Example 3: inhibitor i.p. before cells, SB-3CT and EGCG at much higher concentrations than AG3340): several-fold less cells
delay of the onset of diabetes compared with the control (NOD mice; Example 1: cells co-incubated with AG3340, 1 mg/kg i.p. on days 0, 2, 4, 6, 8, 10): ~2 fold
delay of the onset of diabetes compared to the control (NOD mice; Example 3: 1 mg/kg i.p. 30 min prior to cells, then every other day): approximately 2 fold
dose inducing musculoskeletal effects that required dose discontinuation in more than half of the subjects ([1]; 2 to 100 mg/day in two doses per day): above 25 mg/day
severe dose-limiting toxicity ([1]; 2 to 100 mg/day): did not result in severe dose-limiting toxicity
